# Source: US9212205B2, “Nucleic acid binding compounds and methods of use” (University of Rochester, priority 2007, dated 2015)
# Read-outs that look alike come from different tables or passages of the source.
# Legend:
# [1] = format: physicochemical
# Protocol: The oxidation of 1-1 (FIG. 13, Scheme 2) to the disulfoxide was achieved by reacting 1-1 with H2O2 (1.1 eq.) and MoClO2 (0.05 eq) in 1:1 acetonitrile:water for 15 minutes, followed by purification by RP-HPLC (Jeyakumar et al., “Selective Oxidation of Sulfides to Sulfoxides and Sulfones at Room Temperature Using H2O2 and Mo(VI) Salt as Catalyst,” Tettrahedron Letters 47:4573-76 (2006), which is hereby incorporated by reference in its entirety).
# [2] = target: HIV-1 frameshift-inducing RNA stem-loop (SEQ ID NO:1); test: Fluorescence titration of Cy-3 labeled HIV-1 RNA stem-loop; format: binding
# Protocol: The binding of dicarba analogs to the HIV-1 frameshift-inducing RNA was measured using fluorescence spectroscopy. Fluorescence titrations were performed on a Varian Cary eclipse fluorescence spectrophotometer using 1 cm path-length quartz fluorescence cell. The solution of Cy-3 labeled HIV-1 RNA stem-loop in PBS buffer (400 μL, 400 nM) was taken in the cell and excited with a wavelength of 550 nm. A PMT voltage of 715 V was used for collecting the fluorescence data and the emission spectrum was collected from 555 to 600 nm wavelength range. The ligand solution in PBS buffer was added to the target RNA in the cell in either 2 or 4 μL increments and was allowed to equilibrate for 10 minutes before recording the emission spectrum. Statistical analysis of the data was carried out using Origin 7 (OriginLab corporation). Binding constants were determined by fitting the data to one-site binding model equation.
# A 5′-Cy3 labeled upper stem-loop of HIV-1 RNA (SEQ ID NO:1) was titrated with increasing amount of the dicarba analogs in a phosphate buffer (PBS, pH 7.4) using the same protocol to that described in Example 3 above. The fluorescence intensity of the labeled RNA stem-loop decreased as a function of the ligand concentration. […] Normally, one would expect a greater difference between the affinities of the two isomers.
# To further evaluate the binding selectivity of dicarba analogs to the frameshift-inducing stem-loop, fluorescence titrations were repeated in the presence of twenty-fold excess concentration of yeast tRNA. […] In an interesting result it was discovered that the monomeric compound (5) also bound to the HIV-1 RNA stem-loop with similar affinity as that of the other analogs, but the binding affinity was diminished in the presence of tRNA. […] Quinoline is a known intercalator of nucleotide bases and has the capability to interact with RNA non-specifically. But it is the peptidic part of the molecule in ligands 5-5 E and 5-5 Z that imparts specificity to the interaction between the ligand and the RNA stem-loop. The peptidic part on monomer 5 is insufficient to impart specificity to the interaction as evident from the results.
# [3] = target: (CUG)109 RNA (SEQ ID NO:8)-MBNL1 protein interaction; test: Enzyme Fragmentation Complementation (EFC) assay of (CUG)109-MBNL1 binding inhibition; format: biochemical
# Protocol: Small molecule-mediated inhibition of (CUG)109-MBNL1 binding was determined using an Enzyme Fragmentation Complementation (EFC) assay (Eglen et al., “β-Galactosidase Enzyme Fragment Complementation as A Novel Technology for High Throughput Screening,” Comb. Chem. High Throughput Screening 6:381-387 (2003), which is hereby incorporated by reference in its entirety). Briefly, this was performed by first immobilizing (CUG)109 RNA (SEQ ID NO:8) to a 96 well plate. Next, the immobilized RNA was incubated with recombinant MBNL1 fused to the PL enzyme donor peptide (PL-MBNL1, where “PL” is the commercial “ProLabel” enzyme donor peptide) (DiscoveRx PathHunter ProLabel Detection kit) in the presence of varying concentrations of small molecule inhibitor. The Enzyme Acceptor (EA-β-galactosidase) complement was then added, and the activity of the resulting plate—(CUG)109 bound (PL-MBNL1)-(EA-β-galactosidase) activity was monitored via a chemiluminsecent substrate. Only the EA-β-Gal bound to the PL-MBNL1 is capable of performing the luminescent reaction and, as such, any luminescence correlates to the amount of MBNL1 bound to the (CUG)109 immobilized on the plate. Wells lacking (CUG)109 RNA served as a background measure of non-specific luminescence and were subtracted from each experiment to yield a 0% bound value. Wells containing no small molecule inhibitor added served as 100% bound. […]
# [4] = target: (CUG) repeat RNA SEQ ID NO:7; test: Filter binding assay (FBA), SEQ ID NO:7; details: FBA, read-out: KD
# Protocol: (§1) A filter binding assay system was utilized to provide a rapid initial assessment of binding affinity. All binding studies were performed in PBS pH 7.2+1 mM MgCl2 at 22° C. Various concentrations of small molecules were incubated with 10 nM FAM-labeled RNA in a total volume of 50 μl for 20 minutes. A slot blot apparatus was then assembled with a wet nitrocellulose filter, on top of a wet nylon filter, on top of filter paper. 40 μl of each binding mixture was then loaded into an individual well of the apparatus and allowed to penetrate the filters for 10 minutes. The peptidic disulfides selected from the DCL efficiently bind to the nitrocellulose filter. In contrast, the FAM-labeled RNA strands penetrate the nitrocellulose filter and are bound by the nylon filter. As such, RNA bound by the peptidic library members remains bound on the nitrocellulose filter, and unbound RNA passes to the nylon filter.
# (§2) Densitometric analysis of the ratio of labeled RNA on the nitrocellulose to nylon filters allows quantification of binding (FIG. 15A). All binding isotherms were fit to the logistic binding model (Equation 1 above). The repetitive nature of the target sequences may in some cases result in binding stoichiometries that are more complex than a simple 1:1 interaction.
# (§3) To test specificity and to confirm the determined binding affinities, filter binding assays and fluorescence titrations were performed with SEQ ID NOS: 7-11 (Table 5), and the HIV-1 frameshift stimulating RNA hairpin used in preceding Examples (SEQ ID NO:1, Table 5). Fluorescence titrations were performed using a Varian Cary Eclipse spectrophotometer. 2 μl of 50 or 500 μM small molecule were titrated into 400 μl of FAM labeled RNA sequences an allowed to equilibrate for at least 10 minutes, or until no change in fluorescence spectra was observed. Changes in fluorescence emission at 518 nm (excitation at 490 nm) were measured. Raw data were corrected for dilution dependant changes, and Em518 was plotted against small molecule concentration and fit to the one site binding equation y=(bmaz*x)/(KD+x).) Competition experiments utilizing target RNA (SEQ ID NO:7) and a 20-fold molar excess of total yeast tRNA were performed to measure non-specific RNA binding (Luedtke et al., “RNA-Ligand Interactions: Affinity and Specificity of Aminoglycoside Dimers and Acridine Conjugates to the HIV-1 Rev Response Element,” Biochemistry 42:11391-11403 (2003), which is hereby incorporated by reference in its entirety). Compound 1-1, the HIV-1 RNA ligand, served as a negative control.
# [5] = target: (CUG)109 RNA (SEQ ID NO:8); test: Filter binding assay (FBA), SEQ ID NO:8
# Protocol: as §1, §2
# [6] = target: (CUG)/(CAG) complimentary RNA (SEQ ID NO:10); test: Fluorescence titration (FT), SEQ ID NO:10; format: binding; design: key to KD: NC = Not Calculable.; NS = Not Saturatable
# Protocol: as §3
# [7] = target: (CUG)/(CAG) complimentary RNA (SEQ ID NO:10); test: Filter binding assay (FBA), SEQ ID NO:10
# Protocol: as §1, §2, §3
# [8] = target: HIV-1 frameshift stimulating RNA hairpin (SEQ ID NO:1); test: Filter binding assay (FBA), SEQ ID NO:1
# Protocol: as §1, §2, §3
# [9] = target: variant (CUG) stem RNA (SEQ ID NO:9); test: Fluorescence titration (FT), SEQ ID NO:9; format: binding
# Protocol: as §3
# [10] = target: (CUG) loop RNA (SEQ ID NO:11); test: Filter binding assay (FBA), SEQ ID NO:11
# Protocol: as §1, §2, §3
# [11] = target: variant (CUG) stem RNA (SEQ ID NO:9); test: Filter binding assay (FBA), SEQ ID NO:9
# Protocol: as §1, §2, §3
# [12] = target: (CUG) repeat RNA SEQ ID NO:7; test: Fluorescence titration (FT), SEQ ID NO:7; format: binding
# Protocol: as §3
# [13] = target: (CUG) loop RNA (SEQ ID NO:11); test: Fluorescence titration (FT), SEQ ID NO:11; format: binding; design: key: NC = Not Calculable.; NS = Not Saturatable
# Protocol: as §3
# [14] = 8 μM tRNA (twenty-fold excess), stem-loop 4 × 10^−7 M, PBS buffer, 25° C., read-out: Binding Affinity (Kd) in the presence of excess yeast tRNA
# [15] = fluorescence titration, stem-loop 4 × 10^−7 M, PBS buffer, 25° C., read-out: Binding Affinity (Kd)
Compound,"Kd [2, 15]",Kd ([4]; SEQ ID NO: 7 + 20 x tRNA),Kd ([4]; SEQ ID NO: 7),Kd [5],KD [6],Kd [7],Kd [8],Kd [9],Kd [10],Kd [11],Kd ([12]; SEQ ID NO: 7),Kd ([12]; SEQ ID NO: 7 + 20 x tRNA),KD [13],also measured
CCc1nc2ccccc2cc1C(=O)N[C@@H](C[S+]([O-])[S+]([O-])C[C@H](NC(=O)c1cc2ccccc2nc1CC)C(=O)N1CCC[C@H]1C(=O)N[C@@H](Cc1ccccc1)C(=O)NCCCN)C(=O)N1CCC[C@H]1C(=O)N[C@@H](Cc1ccccc1)C(=O)NCCCN (stereo partly drawn) [1-1 disulfoxide],,,,,,,,,,,,,,"degradation after synthesis [1]: degraded within a few hours of synthesis; Kd ([2]; freshly prepared compound, read-out: KD, fluorescence titration with the HIV1 frameshift inducing stemloop): 0.41 µM"
CCc1nc2ccccc2cc1C(=O)N[C@@H](C/C=C/C[C@H](NC(=O)c1cc2ccccc2nc1CC)C(=O)N1CCC[C@H]1C(=O)N[C@@H](Cc1ccccc1)C(=O)NCCCN)C(=O)N1CCC[C@H]1C(=O)N[C@@H](Cc1ccccc1)C(=O)NCCCN [dimer 5-5 E],0.41 ± 0.02 µM,,,,,,,,,,,,,"Kd [2, 14]: 0.45 ± 0.09 µM"
CCc1nc2ccccc2cc1C(=O)N[C@@H](C/C=C\C[C@H](NC(=O)c1cc2ccccc2nc1CC)C(=O)N1CCC[C@H]1C(=O)N[C@@H](Cc1ccccc1)C(=O)NCCCN)C(=O)N1CCC[C@H]1C(=O)N[C@@H](Cc1ccccc1)C(=O)NCCCN [dimer 5-5 Z],0.24 ± 0.05 µM,,,,,,,,,,,,,"Kd [2, 14]: 0.29 µM"
NCCCCC(NC(=O)C(CSSCC(NC(=O)C(CC(N)=O)NC(=O)c1ccc2c(c1)OCO2)C(=O)NC(CCCCN)C(=O)NCCCN)NC(=O)C(CC(N)=O)NC(=O)c1ccc2c(c1)OCO2)C(=O)NCCCN (stereo not drawn) [dimer 6-6],,,,,,,,,,,,,,"Ki, inhibition of the (CUG)n MBNL1 interaction [3]: do not show any inhibitory effect"
CCc1nc2ccccc2cc1C(=O)N[C@@H](CC(N)=O)C(=O)N[C@@H](CSSC[C@H](NC(=O)[C@@H]1CCCN1C(=O)c1cc2ccccc2nc1CC)C(=O)N[C@@H](CCCCN)C(=O)NCCCN)C(=O)N[C@@H](CCCCN)C(=O)NCCCN [dimer 7-9],,10 ± 0.7 µM,4.5 ± 0.6 µM,2.1 µM,NC,19.5 ± 1 µM,22 ± 2 µM,1.6 µM,4.6 ± 0.1 µM,6.4 ± 1 µM,2.1 µM,2.9 µM,NC,
NCCCC[C@H](NC(=O)[C@H](CSSC[C@H](NC(=O)[C@@H]1CCCN1C(=O)c1ccc2c(c1)OCO2)C(=O)N[C@@H](CCCCN)C(=O)NCCCN)NC(=O)[C@@H]1CCCN1C(=O)c1ccc2c(c1)OCO2)C(=O)NCCCN [dimer 8-8],,14 ± 4 µM,5.4 ± 0.6 µM,2.5 µM,NC,21 ± 1.4 µM,41 ± 9 µM,2.1 µM,7.5 ± 0.9 µM,9.3 ± 0.4 µM,1.4 µM,2.4 µM,NC,
CCc1nc2ccccc2cc1C(=O)N1CCC[C@H]1C(=O)N[C@@H](CSSC[C@H](NC(=O)[C@@H]1CCCN1C(=O)c1ccc2c(c1)OCO2)C(=O)N[C@@H](CCCCN)C(=O)NCCCN)C(=O)N[C@@H](CCCCN)C(=O)NCCCN [dimer 8-9],,9.6 ± 0.7 µM,4.1 ± 0.2 µM,1.9 µM,NC,21 ± 1.8 µM,16 ± 4 µM,2.6 µM,6 ± 0.1 µM,4.7 ± 0.1 µM,2.1 µM,4.2 µM,NC,
CCc1nc2ccccc2cc1C(=O)N1CCC[C@H]1C(=O)N[C@@H](CSSC[C@H](NC(=O)[C@@H]1CCCN1C(=O)c1cc2ccccc2nc1CC)C(=O)N[C@@H](CCCCN)C(=O)NCCCN)C(=O)N[C@@H](CCCCN)C(=O)NCCCN [dimer 9-9],,18 ± 2.1 µM,6.7 ± 0.2 µM,2.1 µM,,> 40 µM,24 ± 5 µM,1.7 µM,8.5 ± 0.1 µM,7.1 ± 1.1 µM,2.2 µM,3.4 µM,NS,Kd [6]: 17 µM
C=CC[C@H](NC(=O)c1cc2ccccc2nc1CC)C(=O)N1CCC[C@H]1C(=O)N[C@@H](Cc1ccccc1)C(=O)NCCCN [monomer 5],0.37 ± 0.02 µM,,,,,,,,,,,,,"Binding Affinity (Kd) in the presence of excess yeast tRNA ([2]; 8 μM tRNA (twenty-fold excess), stem-loop 4 × 10^−7 M, PBS buffer, 25° C.): No binding"
